Read-outs that look alike come from different tables or passages of the source.
How the values were obtained:
[1] = test system: Clostridium autoethanogenum culture 19630; details: 54 hours
Experimental: To determine the cell density in these experiments, the absorbance of the samples was measured at 600 nm (spectrophotometer) and the dry mass determined by extrapolation.
Each well was inoculated with 50 μL of an actively growing Clostridium autoethanogenum culture 19630 from a continuous bioreactor. The wells were then mixed thoroughly and 200 ul from each well was added to a 96 well tissue culture plate. The plate was then sealed with a gas permeable sealing film and placed into an anaerobic pressure vessel. This vessel was pressurized to 30 psi with 100% CO gas and placed on an orbital shaker (150 rpm) in an incubated chamber at 37° C. Samples were analyzed at 54 hours after incubation.

[2] = test system: Clostridium autoethanogenum DSM10061
Experimental: High Performance Liquid Chromatography (HPLC) was used to characterize the level of substrates and products such as for acetate, ethanol, fructose, xylose and pyruvate. HPLC System Agilent 1100 Series. Mobile Phase: 0.0025N Sulphuric Acid. Flow and pressure: 0.800 mL/min. Column: Alltech IOA; Catalog #9648, 150×6.5 mm, particle size 5 μm. Temperature of column: 60° C. Detector: Refractive Index. Temperature of detector: 45° C.
Method for sample preparation: 400 μL of sample+50 μL of 0.15M ZnSO4+50 μL of 0.15M Ba(OH)2 into an Eppendorf tube. Centrifuge 10 min at 12,000 rpm, 4° C. Transfer 200 μL supernatant into an HPLC vial and inject into the HPLC instrument 5 μL.
The serum bottles were charged with CO containing gas (2% H2; 30% N2; 47% CO; 21% CO2) to an overpressure of 30 psi. The gas was purged and refreshed at time=54 h. Growth was monitored by measuring the optical density at 600 nm (OD600nm) and metabolites were detected by HPLC.

[3] = test system: Clostridium ljungdahlii DSM13528

What does the source list for `[Cl][Ni][Cl]` [Nickel, nickel chloride]?
Cell density ([1]; Additional Nickel 100 μM): 0.23 g/L; Cell density ([1]; Additional Nickel 200 μM): 0.25 g/L; Cell density ([1]; Additional Nickel 300 μM): 0.28 g/L; Cell density ([1]; Additional Nickel 400 μM): 0.30 g/L; Cell density ([1]; Additional Nickel 500 μM): 0.35 g/L; Cell density ([1]; Additional Nickel 600 μM): 0.31 g/L; Cell density ([1]; Additional Nickel 700 μM): 0.37 g/L; Cell density ([1]; Additional Nickel 800 μM): 0.45 g/L; Cell density ([1]; Additional Nickel 900 μM): 0.43 g/L; Cell density ([1]; Additional Nickel 1000 μM): 0.39 g/L; Ethanol ([2]; Nickel 200 μM, 0 h): 0.22 ± 0.02 g/L; OD600 nm ([2]; Nickel 200 μM, 0 h): 0.009 ± 0.001; Ethanol ([2]; Nickel 200 μM, 30 h): 0.22 ± 0.03 g/L; OD600 nm ([2]; Nickel 200 μM, 30 h): 0.038 ± 0.010; Acetate ([2]; Nickel 200 μM, 54 h): 0.12 ± 0.02 g/L; Ethanol ([2]; Nickel 200 μM, 54 h): 0.23 ± 0.03 g/L; OD600 nm ([2]; Nickel 200 μM, 54 h): 0.052 ± 0.022; Acetate ([2]; Nickel 200 μM, 102 h): 0.83 ± 0.53 g/L; Ethanol ([2]; Nickel 200 μM, 102 h): 0.23 ± 0.01 g/L; OD600 nm ([2]; Nickel 200 μM, 102 h): 0.223 ± 0.141; Acetate ([2]; Nickel 200 μM, 127 h): 1.48 ± 0.54 g/L; Ethanol ([2]; Nickel 200 μM, 127 h): 0.30 ± 0.19 g/L; OD600 nm ([2]; Nickel 200 μM, 127 h): 0.333 ± 0.131; Ethanol ([2]; Nickel 400 μM, 0 h): 0.22 ± 0.02 g/L; OD600 nm ([2]; Nickel 400 μM, 0 h): 0.010 ± 0.001; Ethanol ([2]; Nickel 400 μM, 30 h): 0.22 ± 0.02 g/L; OD600 nm ([2]; Nickel 400 μM, 30 h): 0.065 ± 0.002; Acetate ([2]; Nickel 400 μM, 54 h): 0.18 ± 0.10 g/L; Ethanol ([2]; Nickel 400 μM, 54 h): 0.21 ± 0.02 g/L; OD600 nm ([2]; Nickel 400 μM, 54 h): 0.087 ± 0.011; Acetate ([2]; Nickel 400 μM, 102 h): 1.05 ± 0.85 g/L; Ethanol ([2]; Nickel 400 μM, 102 h): 0.68 ± 0.41 g/L; OD600 nm ([2]; Nickel 400 μM, 102 h): 0.337 ± 0.129; Acetate ([2]; Nickel 400 μM, 127 h): 1.44 ± 0.83 g/L; Ethanol ([2]; Nickel 400 μM, 127 h): 0.68 ± 0.21 g/L; OD600 nm ([2]; Nickel 400 μM, 127 h): 0.452 ± 0.200; Ethanol ([2]; Nickel 700 μM, 0 h): 0.23 ± 0.03 g/L; OD600 nm ([2]; Nickel 700 μM, 0 h): 0.011 ± 0.001; Ethanol ([2]; Nickel 700 μM, 30 h): 0.24 ± 0.02 g/L; OD600 nm ([2]; Nickel 700 μM, 30 h): 0.238 ± 0.023; Acetate ([2]; Nickel 700 μM, 54 h): 0.25 ± 0.01 g/L; Ethanol ([2]; Nickel 700 μM, 54 h): 0.25 ± 0.03 g/L; OD600 nm ([2]; Nickel 700 μM, 54 h): 0.292 ± 0.013; Acetate ([2]; Nickel 700 μM, 102 h): 0.94 ± 0.14 g/L; Ethanol ([2]; Nickel 700 μM, 102 h): 0.73 ± 0.05 g/L; OD600 nm ([2]; Nickel 700 μM, 102 h): 0.714 ± 0.060; Acetate ([2]; Nickel 700 μM, 127 h): 0.95 ± 0.16 g/L; Ethanol ([2]; Nickel 700 μM, 127 h): 0.72 ± 0.03 g/L; OD600 nm ([2]; Nickel 700 μM, 127 h): 0.620 ± 0.021; Ethanol ([2]; Nickel 1000 μM, 0 h): 0.29 ± 0.04 g/L; OD600 nm ([2]; Nickel 1000 μM, 0 h): 0.010 ± 0.001; Ethanol ([2]; Nickel 1000 μM, 30 h): 0.28 ± 0.02 g/L; OD600 nm ([2]; Nickel 1000 μM, 30 h): 0.268 ± 0.080; Acetate ([2]; Nickel 1000 μM, 54 h): 0.38 ± 0.01 g/L; Ethanol ([2]; Nickel 1000 μM, 54 h): 0.26 ± 0.03 g/L; OD600 nm ([2]; Nickel 1000 μM, 54 h): 0.389 ± 0.071; Acetate ([2]; Nickel 1000 μM, 102 h): 1.57 ± 0.21 g/L; Ethanol ([2]; Nickel 1000 μM, 102 h): 1.02 ± 0.09 g/L; OD600 nm ([2]; Nickel 1000 μM, 102 h): 0.720 ± 0.105; Acetate ([2]; Nickel 1000 μM, 127 h): 1.78 ± 0.11 g/L; Ethanol ([2]; Nickel 1000 μM, 127 h): 0.99 ± 0.11 g/L; OD600 nm ([2]; Nickel 1000 μM, 127 h): 0.674 ± 0.098; Ethanol ([3]; Nickel 200 μM, 0 h): 0.23 ± 0.02 g/L; OD600 nm ([3]; Nickel 200 μM, 0 h): 0.010 ± 0.001; Acetate ([3]; Nickel 200 μM, 30 h): 0.07 ± 0.07 g/L; Ethanol ([3]; Nickel 200 μM, 30 h): 0.23 ± 0.02 g/L; OD600 nm ([3]; Nickel 200 μM, 30 h): 0.057 ± 0.003; Acetate ([3]; Nickel 200 μM, 54 h): 0.24 ± 0.10 g/L; Ethanol ([3]; Nickel 200 μM, 54 h): 0.27 ± 0.03 g/L; OD600 nm ([3]; Nickel 200 μM, 54 h): 0.163 ± 0.053; Acetate ([3]; Nickel 200 μM, 102 h): 0.38 ± 0.10 g/L; Ethanol ([3]; Nickel 200 μM, 102 h): 0.57 ± 0.11 g/L; OD600 nm ([3]; Nickel 200 μM, 102 h): 0.273 ± 0.001; Acetate ([3]; Nickel 200 μM, 127 h): 0.77 ± 0.24 g/L; Ethanol ([3]; Nickel 200 μM, 127 h): 0.58 ± 0.07 g/L; OD600 nm ([3]; Nickel 200 μM, 127 h): 0.284 ± 0.010; Ethanol ([3]; Nickel 400 μM, 0 h): 0.22 ± 0.02 g/L; OD600 nm ([3]; Nickel 400 μM, 0 h): 0.011 ± 0.002; Ethanol ([3]; Nickel 400 μM, 30 h): 0.22 ± 0.01 g/L; OD600 nm ([3]; Nickel 400 μM, 30 h): 0.097 ± 0.024; Acetate ([3]; Nickel 400 μM, 54 h): 0.15 ± 0.04 g/L; Ethanol ([3]; Nickel 400 μM, 54 h): 0.21 ± 0.02 g/L; OD600 nm ([3]; Nickel 400 μM, 54 h): 0.114 ± 0.030; Acetate ([3]; Nickel 400 μM, 102 h): 0.20 ± 0.01 g/L; Ethanol ([3]; Nickel 400 μM, 102 h): 0.53 ± 0.31 g/L; OD600 nm ([3]; Nickel 400 μM, 102 h): 0.199 ± 0.103; Acetate ([3]; Nickel 400 μM, 127 h): 0.30 ± 0.19 g/L; Ethanol ([3]; Nickel 400 μM, 127 h): 0.77 ± 0.24 g/L; OD600 nm ([3]; Nickel 400 μM, 127 h): 0.310 ± 0.017; Ethanol ([3]; Nickel 700 μM, 0 h): 0.25 ± 0.01 g/L; OD600 nm ([3]; Nickel 700 μM, 0 h): 0.009 ± 0.001; Ethanol ([3]; Nickel 700 μM, 30 h): 0.24 ± 0.01 g/L; OD600 nm ([3]; Nickel 700 μM, 30 h): 0.235 ± 0.076; Acetate ([3]; Nickel 700 μM, 54 h): 0.21 ± 0.05 g/L; Ethanol ([3]; Nickel 700 μM, 54 h): 0.35 ± 0.11 g/L; OD600 nm ([3]; Nickel 700 μM, 54 h): 0.427 ± 0.182; Acetate ([3]; Nickel 700 μM, 102 h): 0.24 ± 0.03 g/L; Ethanol ([3]; Nickel 700 μM, 102 h): 0.73 ± 0.01 g/L; OD600 nm ([3]; Nickel 700 μM, 102 h): 0.579 ± 0.062; Acetate ([3]; Nickel 700 μM, 127 h): 0.34 ± 0.16 g/L; Ethanol ([3]; Nickel 700 μM, 127 h): 0.82 ± 0.03 g/L; OD600 nm ([3]; Nickel 700 μM, 127 h): 0.528 ± 0.054; Ethanol ([3]; Nickel 1000 μM, 0 h): 0.24 ± 0.01 g/L; OD600 nm ([3]; Nickel 1000 μM, 0 h): 0.011 ± 0.001; Ethanol ([3]; Nickel 1000 μM, 30 h): 0.26 ± 0.01 g/L; OD600 nm ([3]; Nickel 1000 μM, 30 h): 0.549 ± 0.049; Acetate ([3]; Nickel 1000 μM, 54 h): 0.23 ± 0.02 g/L; Ethanol ([3]; Nickel 1000 μM, 54 h): 0.42 ± 0.14 g/L; OD600 nm ([3]; Nickel 1000 μM, 54 h): 0.691 ± 0.017; Acetate ([3]; Nickel 1000 μM, 102 h): 0.31 ± 0.03 g/L; Ethanol ([3]; Nickel 1000 μM, 102 h): 0.68 ± 0.26 g/L; OD600 nm ([3]; Nickel 1000 μM, 102 h): 0.862 ± 0.324; Acetate ([3]; Nickel 1000 μM, 127 h): 0.46 ± 0.03 g/L; Ethanol ([3]; Nickel 1000 μM, 127 h): 0.98 ± 0.11 g/L; OD600 nm ([3]; Nickel 1000 μM, 127 h): 0.853 ± 0.329
